Data set [1] deals with IL-6 secretion by monocytic THP-1 cells. The data set can be described thus: IL-1β-induced IL-6 secretion by THP-1 cells (ELISA). The class given is cell-based. As to conditions: Homo sapiens, 30 min compound, then 5 ng/ml IL-1β, 24 h. How it is done:
(§1) FLS, HUVEC, SW982, and THP-1 cells were plated in 96 well plates (10^4 to 10^5 cells/well) for 48 h before treatment. At 2 days post-confluency, the cells were serum-starved and washed twice (with the exception of THP-1 cell, which were not washed) with FBS-free medium prior to the addition of test compounds. The cells were incubated in the presence or absence of test compounds or DMSO (vehicle control) for 30 min at 37°C in a 5% CO2 atmosphere, IL-1β (5 ng/ml) was added, and the cells were incubated for an additional 24 h. Culture supernatants were collected and stored at –80°C. The levels of MMP-1 and MMP-3 were determined in culture supernatants using commercially available ELISA kits according to the manufacturer’s instructions (R&D System, Minneapolis, MN, USA). IL-6 levels were also determined in the supernatants using a human IL-6 ELISA kit (BD Biosciences, San Jose, CA, USA).
(ELISA stands for enzyme-linked immunosorbent assay.)

A further data set relates to IL-6 secretion by FLS. Description: IL-1β-induced IL-6 secretion by FLS (ELISA). As to conditions: Homo sapiens; 30 min compound, then 5 ng/ml IL-1β, 24 h. The class given is cell-based. The source says:
(§2) This study was approved by the Institutional Review Board of University of California, San Diego School of Medicine (La Jolla, CA, USA). Informed consent was obtained from all participants. Anonymous synovial tissue samples were obtained from six patients with RA at the time of total joint replacement (5 females, 1 male; age range, 44–72 years), as previously described ([Alvaro-Gracia et al., 1990]). The diagnosis of RA conformed to American College of Rheumatology 1987 revised criteria ([Arnett et al., 1988]). The synovium was minced and incubated with collagenase type VIII (0.5 mg/ml) (Sigma-Aldrich) in serum-free RPMI-1640 (Life Technologies, Grand Island, NY, USA) for 2 h at 37°C, filtered, extensively washed, and cultured in DMEM (Life Technologies) supplemented with 10% FBS (Gemini Bio Products, Calabasas, CA, USA), penicillin, streptomycin, gentamicin, and glutamine in a humidified 5% CO2 atmosphere. […]
(§3) FLS, HUVEC, SW982, and THP-1 cells were plated in 96 well plates (10^4 to 10^5 cells/well) for 48 h before treatment. […] The levels of MMP-1 and MMP-3 were determined in culture supernatants using commercially available ELISA kits according to the manufacturer’s instructions (R&D System, Minneapolis, MN, USA). IL-6 levels were also determined in the supernatants using a human IL-6 ELISA kit (BD Biosciences, San Jose, CA, USA).

In a further data set the test system is MMP-1 secretion by HUVEC. The data set can be described thus: IL-1β-induced MMP-1 secretion by HUVEC (ELISA). The class given is cell-based. As to conditions: Homo sapiens, 30 min compound, then 5 ng/ml IL-1β, 24 h. How it is done: as §1
In data set [2] the test system is MMP-3 secretion by SW982 cells. Description: IL-1β-induced MMP-3 secretion by SW982 cells (ELISA). The class given is cell-based. As to conditions: Homo sapiens, 30 min compound, then 5 ng/ml IL-1β, 24 h. How it is done:
as §1

For another data set, the system named is MMP-3 secretion by HUVEC. The data set can be described thus: IL-1β-induced MMP-3 secretion by HUVEC (ELISA). The class given is cell-based. As to conditions: Homo sapiens, 30 min compound, then 5 ng/ml IL-1β, 24 h. How it is done: as §1
Another data set has as its system MMP-3 secretion by FLS. The data set can be described thus: IL-1β-induced MMP-3 secretion by FLS (ELISA). As to conditions: Homo sapiens; 30 min compound, then 5 ng/ml IL-1β, 24 h. The class given is cell-based.
Text: as §2, §3

Data set [3] is described as follows: Cytotoxicity assay (CellTiter-Glo), FLS. As to conditions: both sexes, human; concentrations up to 50 µM; read-out: Cytotoxic effect FLS IC50. The class given is cell-based, human. The source says: (§4) This study was approved by the Institutional Review Board of University of California, San Diego School of Medicine (La Jolla, CA, USA). Informed consent was obtained from all participants. Anonymous synovial tissue samples were obtained from six patients with RA at the time of total joint replacement (5 females, 1 male; age range, 44–72 years), as previously described ([Alvaro-Gracia et al., 1990]). The diagnosis of RA conformed to American College of Rheumatology 1987 revised criteria ([Arnett et al., 1988]). The synovium was minced and incubated with collagenase type VIII (0.5 mg/ml) (Sigma-Aldrich) in serum-free RPMI-1640 (Life Technologies, Grand Island, NY, USA) for 2 h at 37°C, filtered, extensively washed, and cultured in DMEM (Life Technologies) supplemented with 10% FBS (Gemini Bio Products, Calabasas, CA, USA), penicillin, streptomycin, gentamicin, and glutamine in a humidified 5% CO2 atmosphere. Cells were allowed to adhere overnight, nonadherent cells were removed, and adherent fibroblast-like synoviocytes (FLS) were split at 1:3 when 70%–80% confluent. FLS were used from passages 3 through 9, during which time they are a homogeneous population of cells (<1% CD11b positive, <1% phagocytic, and <1% FcγRII and FcγRIII receptor positive).
(§5) Cytotoxicity was analyzed using a CellTiter-Glo Luminescent Cell Viability Assay Kit (Promega), according to the manufacturer’s protocol. […] Following treatment, substrate was added to the cells, and the samples were analyzed with a Fluoroscan Ascent FL microplate reader.
A general note: ATP-based viability assays read luminescence as a measure of living cells.

The subject of the next data set is FLS. Description: Cytotoxicity assay (CellTiter-Glo), FLS. The class given is cell-based, human. As to conditions: during the 90-min period of the c-Jun assay.
Text: as §4, §5

Data set [4] has as its system c-Jun phosphorylation in FLS. Description: c-Jun phosphorylation in IL-1β-stimulated FLS (Western blot). As to conditions: 1 h pretreatment, 2 ng/ml IL-1β 15 min. The class given is cell-based, human. How it is done:
Cultured FLS (passage 4) were plated at 2 × 10^5 cells in six-well plates overnight in DMEM containing 10% FBS and synchronized for 24 h in DMEM/0.1% FBS. […] The cells were then washed once with ice-cold PBS and lysed with modified radioimmunoprecipitation assay buffer [50 mM HEPES, pH 7.4, 150 mM NaCl, 1% Triton X-100, 10% glycerol, 2.5 mM MgCl2, 1.0 mM EDTA, 20 mM β-glycerophosphate, 10 mM NaF, 1 mM Na3VO4, and Protease inhibitor cocktail (Roche, Indianapolis, IN)]. Protein concentration of the lysates was measured using a MicroBCA Assay kit (Pierce, Rockford, IL), and 40 μg lysate was subjected to 10% SDS-PAGE and Western blot analysis. Anti–phospho-c-Jun (Ser63) was purchased from Cell Signaling Technology (Danvers, MA), and anti-mouse GAPDH was from Santa Cruz Biotechnology (Santa Cruz, CA).
On the technique in general: A western blot detects proteins with antibodies after separation by electrophoresis.

In the next data set the test system is JNK2. Details: method as in Schepetkin et al., 2019. As to conditions: kinase profiling; ref Schepetkin et al., 2019; cited from earlier work.

On to `O=C1c2ccccc2-n2c1nc1ccccc1c2=O` [TRYP, indolo[2,1-b]quinazolin-6,12-dione], for which the 50% inhibitory concentration (IC50) in data set [1] was found to be 9.3 ± 2.7 µM; in the data set with IL-6 secretion by FLS, 14.8 ± 1.8 µM; with MMP-1 secretion by HUVEC, 3.4 ± 1.1 µM; in [2] it was 8.7 ± 0.3 µM; with MMP-3 secretion by HUVEC, 12.8 ± 4.4 µM; with MMP-3 secretion by FLS, 12.7 ± 4.6 µM. The IC50 in data set [3] was found to be 16.7 ± 1.6 µM. Moreover, the FLS viability entry in the data set on FLS is on record as “neither TRYP nor TRYP-Ox affected FLS viability”. Also, in [4], the c-Jun phosphorylation result was “had no effect”. The “binding affinity for JNK2” value in the data set with JNK2 is on record as “no binding affinity”.

As for `O=c1c2ccccc2nc2n1-c1ccccc1/C2=N/O` [TRYP-Ox, tryptanthrin-6-oxime], the IC50 in data set [1] was 0.3 ± 0.12 µM; in the data set on IL-6 secretion by FLS, 7.4 ± 1.2 µM; in the data set on MMP-1 secretion by HUVEC, 2.9 ± 0.1 µM; in data set [2] it was 1.4 ± 0.1 µM; with MMP-3 secretion by HUVEC, 15.9 ± 5.8 µM; in the data set on MMP-3 secretion by FLS it was 3.8 ± 0.4 µM. For the same compound, the 50% inhibitory concentration (IC50) in [3] was above 50 µM. Further, the FLS viability entry in the data set with FLS is given as “neither TRYP nor TRYP-Ox affected FLS viability”. Besides, the c-Jun phosphorylation entry in [4] is given as “inhibited c-Jun phosphorylation”. Further, the “binding affinity for JNK2” value in the data set with JNK2 is reported as “high binding affinity”.

As a reminder, the IC50 is the midpoint of a concentration-inhibition curve.
